Reference: patent US4266034A, “Method for producing microbial cells and use thereof to produce oxidation products” (priority 1979, dated 1981)

How the values were obtained:
[1] = tested on: methanol-grown Methylococcus capsulatus CRL M1 (NRRL B-11,219); test: Production of 2-butanone from 2-butanol by cell suspensions, inhibition studies; type: cell-based; settings: 1 mM
[2] = tested on: secondary alcohol dehydrogenase (SADH); test: Purified secondary alcohol dehydrogenase (SADH) activity; type: biochemical, Pseudomonas sp. ATCC 21439; settings: each inhibitor 1 mM; measured spectrofluorometrically
Method: Secondary alcohol dehydrogenase (SADH) from an obligate methanol utilizer, Pseudomonas sp. ATCC 21439 was purified as follows. […] 0.05 M sodium phosphate buffer, pH 7.0 with 0.5 mM dithiothretol (buffer A) and were disrupted sonically (5×1 min.). The crude extract was separated by centrifugation. The crude extract was heat-treated at 50° C. in a water bath for 10 minutes. The resulting precipitate was removed by centrifugation. To the supernatant solution, 25 ml of protamine sulfate solution (2% solution in 0.1 M Tris base) was added dropwise with continuous stirring. After standing for 30 minutes, the extract was centrifuged. The supernatant solution was fractionated with solid ammonium sulfate. The material precipitating between 30 and 60% saturation was collected and was dialized overnight against buffer A. The The dialized material was applied to a DEAE-cellulose column (3 cm by 35 cm) that had been equilibrated with buffer A. The secondary alcohol dehydrogenase activity was eluted in the void volume. This DEAE-cellulose eluate was concentrated by ammonium sulfate fractionation. Material precipitating between 30 and 50% ammonium sulfate saturation was collected by centrifugation and dialyzed overnight against A. This fraction was further washed and filtered through an Amicon unit with XM 50 membrane. The concentrated fraction (6 ml) inside the Amicon unit was applied to an Affi-Gel Blue column (0.8 cm×18 cm) which had been equilibrated with buffer A for affinity chromatography. The column was washed overnight with buffer A (0.18 ml./min.) and then was eluted with buffer A containing 5 mM NAD. Each 1 ml. fraction was collected.
The purified secondary alcohol dehydrogenase enzyme (SADH) may be used directly for converting C3 -C6 secondary alcohols to the corresponding methyl ketones by the procedures described above; however, a source of NAD^+ must be added to the reaction medium. One can determine the NAD-linked secondary alcohol dehydrogenase activity with a fluorescence spectrophotometer (Perkin Elmer, Model MPF 44A) by following the formation of reduced NAD (Ex 340 nm, Em 460 nm). The assay system (3 ml.) will typically contain: sodium phosphate buffer pH 7.0, 150 μmol; NAD 1.0 μmol; a given amount of enzyme preparation; and 20 μmol secondary alcohol. The reaction is started by the addition of secondary alcohol. One unit of SADH enzyme activity represents the reduction of one nmole NAD per minute.
The effect of metal-chelating agents and thioreagents on the activity of the purified SADH enzyme were studied. […] The possibility of ethanol or n-propanol as an inhibitor was studied.

[3] = tested on: secondary alcohol dehydrogenase; test: Purified yeast-derived secondary alcohol dehydrogenase activity; type: biochemical, Pichia sp. NRRL Y-11,328; settings: purified enzyme
Method: Large scale cultures of Pichia sp. NRRL Y-11,328 were grown with aeration at 30° C. in a 14-liter New Brunswick f fermentor in a mineral salt medium containing methanol (0.4%, v/v) as the sole carbon source. The cells (200 g., wet weight) were suspended in […] sodium phosphate buffer, pH 7.0, containing 1 mM dithiothreitol (buffer A), and crude extracts were prepared as described previously. To the crude extracts, 18 ml. of protamine sulfate solution [2% solution in 0.1 M tris (hydroxymethyl) aminomethane (tris) base] was added dropwise with continuous stirring. After standing for 30 min., the extracts were centrifuged at 20,000×g. for 60 min. The supernatant solution was fractionated with solid ammonium sulfate. Extracts were brought to 50% of saturation with respect to ammonium sulfate by addition of 313 g. of the salt per liter of extract. Precipitated proteins was removed by centrifugation, and 137 g. of ammonium sulfate was added per liter of the supernatant liquid to bring it to 70% of saturation. Material precipitating between 50 and 70% of saturation was collected by centrifugation and dissolved in buffer A. This preparation was dialyzed overnight against buffer A, and the dialyzed material was applied to a DEAE-cellulose column (5×40 cm) that had been equilibrated with buffer A. The sample was washed with 200 ml. of buffer A and eluted with 2 liters of buffer A that contained NaCl in a linear gradient running from a concentration of 0 to 0.5 M. Fractions of 15 ml. were collected. Fractions containing secondary alcohol dehydrogenase activity were pooled and were termed DEAE-cellulose eluate. The DEAE-cellulose eluate was concentrated by ammonium sulfate fractionation.
Secondary alcohol dehydrogenase activity was measured spectrophotometrically at 340 nm with a NAD^+ as an electron acceptor. The reaction mixture, in a total 3.0 ml., contained 50 mM phosphate buffer, pH 8.0, 5 μmoles NAD^+, crude extracts, and substrate. […] Protein concentration was determined by the method of Lowry et al.
The substrate specificity of the purified secondary alcohol dehydrogenase was examined spectrophotometrically.

[4] = tested on: cell-free particulate fractions derived from the methylotrophic microorganisms; test: Inhibition of conversion of C3-C6 n-alkanes to sec. alcohols by cell-free particulate fractions; type: biochemical; settings: oxygen and NADH
Excerpt: The conditions for preparing the cell suspensions or the cell-free particulate fractions from methane-grown methylotroph microorganisms is the same as described above. […] Tables XXV and XXVI show the conversion of C3 -C6 n-alkanes to the corresponding secondary alcohols using cell suspensions and cell-free particulate fractions, respectively, of methane-grown methylotroph microorganisms.

c1cnc2c(c1)ccc1cccnc12 [1,10-Phenanthroline]
Inhibition of 2-butanone production (yes/no) [1]: inhibited
% inhibition of SADH activity [2]: 95%
inhibition of secondary alcohol dehydrogenase activity [3]: strongly inhibited
inhibition of the conversion of n-alkanes to sec. alcohols [4]: inhibited
